# Measured values published in patent US9346761B2, “Arginine methyltransferase inhibitors and uses thereof” (Epizyme, Inc., priority 2013, dated 2016).
# Legend:
# [1] = molecular target: T1, Full-length human PRMT1 isoform 1 (Homo sapiens, UniProt Q99873); assay: PRMT1 biochemical assay (3H-SAM Flashplate, peptide substrate)
# T1 construct: GST-tagged PRMT1; made in house; host or cells: High Five insect cells (baculovirus, pFastBacI)
# In short: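 Tritiated methyl transfer from 3H-SAM onto biotinylated peptide, captured on streptavidin Flashplates and counted. Baculovirus-expressed GST-PRMT1 and compound were preincubated 30 min at room temperature in Bicine buffer pH 7.6. Cold SAM at 300 uM final ended the reaction.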
# Full-length human PRMT8 = molecular target: T2, Full-length human PRMT8 (Homo sapiens, UniProt Q9NR22); assay: PRMT8 biochemical assay (3H-SAM Flashplate, peptide substrate)
# T2 construct: Full-length human PRMT8 (NM_019854.4) isoform 1 transcript clone; made in house
# T2 sequence (Q9NR22 whole entry, canonical isoform): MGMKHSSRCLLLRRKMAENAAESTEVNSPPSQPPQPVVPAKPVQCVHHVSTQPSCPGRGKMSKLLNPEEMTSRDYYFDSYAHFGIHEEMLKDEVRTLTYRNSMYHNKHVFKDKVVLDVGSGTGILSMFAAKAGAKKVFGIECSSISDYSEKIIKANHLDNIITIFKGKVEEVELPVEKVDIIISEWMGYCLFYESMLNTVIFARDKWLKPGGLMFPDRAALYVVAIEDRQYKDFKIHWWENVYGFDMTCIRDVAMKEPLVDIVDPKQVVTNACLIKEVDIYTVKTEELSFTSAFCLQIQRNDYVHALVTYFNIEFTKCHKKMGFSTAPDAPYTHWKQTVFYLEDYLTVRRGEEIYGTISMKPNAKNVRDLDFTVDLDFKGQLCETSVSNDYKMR
# In short: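 Methylation of a biotinylated H4 (31-45) peptide by ³H-SAM was counted after streptavidin Flashplate capture. Purified recombinant PRMT8 and compound were preincubated 30 min at room temperature in Bicine buffer pH 7.6 with TCEP, BSG and Tween 20, and reactions were stopped with unlabeled SAM (final 400 μM). Inhibition versus DMSO and SAH controls was fit by 3- or 4-parameter curves.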
# T1 sequence (Q99873 with tags, fused parts or gaps): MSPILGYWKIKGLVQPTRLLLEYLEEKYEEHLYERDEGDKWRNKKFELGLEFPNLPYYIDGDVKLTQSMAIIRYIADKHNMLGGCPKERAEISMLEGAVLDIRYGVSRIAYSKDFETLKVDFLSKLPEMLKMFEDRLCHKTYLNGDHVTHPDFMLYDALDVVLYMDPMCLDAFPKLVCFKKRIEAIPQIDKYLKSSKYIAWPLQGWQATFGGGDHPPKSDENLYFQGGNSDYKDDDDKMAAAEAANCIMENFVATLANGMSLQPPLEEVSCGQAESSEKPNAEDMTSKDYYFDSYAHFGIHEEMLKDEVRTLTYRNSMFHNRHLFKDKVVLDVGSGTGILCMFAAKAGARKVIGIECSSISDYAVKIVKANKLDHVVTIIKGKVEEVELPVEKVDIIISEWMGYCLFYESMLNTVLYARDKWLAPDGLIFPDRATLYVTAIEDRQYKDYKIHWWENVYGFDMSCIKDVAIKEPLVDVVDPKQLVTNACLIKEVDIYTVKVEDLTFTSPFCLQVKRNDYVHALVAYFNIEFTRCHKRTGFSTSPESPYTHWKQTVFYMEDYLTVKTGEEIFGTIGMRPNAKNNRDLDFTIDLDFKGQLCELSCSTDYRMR
SMILES,IC50 [1],IC50 (Full-length human PRMT8)
"CNCCN(C)Cc1c[nH]nc1-c1ccc(F)cc1 [Compound 2, N^1-((3-(4-fluorophenyl)-1H-pyrazol-4-yl)methyl)-N^1,N^2-dimethylethane-1,2-diamine]",< 100 nM,101 to 1000 nM
CN(CCN)Cc1cn(C)nc1-c1ccc(F)cc1 [Compound 3],< 100 nM,101 to 1000 nM
CN(CCN)Cc1cnn(C)c1-c1ccc(F)cc1 [Compound 4],101 to 1000 nM,1010 to 3000 nM
CCN(CCNC)Cc1c[nH]nc1-c1ccc(F)cc1 [Compound 9],,101 to 1000 nM
CNCCN(C)Cc1cnn(C)c1-c1ccc(F)cc1 [Compound 10],,101 to 1000 nM
CNCCN(C)Cc1cn(CC2CCOCC2)nc1-c1ccc(F)cc1 [Compound 11],,> 10000 nM
CNCCN(C)Cc1cnn(CC2CCOCC2)c1-c1ccc(F)cc1 [Compound 12],,> 10000 nM
CNCCN(C)Cc1c[nH]nc1-c1cccc(N)c1 [Compound 32],,1010 to 3000 nM
CNCCN(C)Cc1c[nH]nc1-c1ccc(CC#N)cc1 [Compound 34],,101 to 1000 nM
CNCCN(C)Cc1c[nH]nc1-c1ccccc1O [Compound 35],,> 10000 nM
CNCCN(C)Cc1c[nH]nc1-c1ccccc1Oc1ccccc1 [Compound 36],,> 10000 nM
CNCCN(C)Cc1c[nH]nc1-c1cccc(OC(F)(F)F)c1 [Compound 39],,101 to 1000 nM
CNCCN(C)Cc1c[nH]nc1-c1ccccc1NS(C)(=O)=O [Compound 41],,> 10000 nM
CNCCN(C)Cc1c[nH]nc1-c1cccc(NC(C)=O)c1 [Compound 42],,1010 to 3000 nM
CNCCN(C)Cc1c[nH]nc1-c1cccc(C(C)=O)c1 [Compound 44],,101 to 1000 nM
CNCCN(C)Cc1c[nH]nc1-c1ccc(C(=O)c2ccccc2)cc1 [Compound 45],< 100 nM,101 to 1000 nM
CNCCN(C)Cc1c[nH]nc1-c1ccccc1-c1ccccc1 [Compound 46],1010 to 3000 nM,> 10000 nM
CNCCN(C)Cc1c[nH]nc1-c1ccc(-c2ccccc2)cc1 [Compound 47],,< 100 nM
CNCCN(C)Cc1c[nH]nc1-c1ccccc1F [Compound 48],,1010 to 3000 nM
CNCCN(C)Cc1c[nH]nc1-c1ccc(F)cc1F [Compound 49],101 to 1000 nM,101 to 1000 nM
CNCCN(C)Cc1c[nH]nc1-c1cc(F)ccc1F [Compound 50],101 to 1000 nM,1010 to 3000 nM
CNCCN(C)Cc1c[nH]nc1-c1ccc(F)c(F)c1 [Compound 51],< 100 nM,101 to 1000 nM

SMILES,IC50 [1],IC50 (Full-length human PRMT8)
CNCCN(C)Cc1c[nH]nc1-c1ccc(OC)c(F)c1 [Compound 52],< 100 nM,101 to 1000 nM
CNCCN(C)Cc1c[nH]nc1-c1cc(Cl)ccc1OC [Compound 53],3010 to 10000 nM,> 10000 nM
CNCCN(C)Cc1c[nH]nc1-c1cccc(OC)c1OC [Compound 54],101 to 1000 nM,3010 to 10000 nM
CNCCN(C)Cc1c[nH]nc1-c1ccc(OC)cc1OC [Compound 55],101 to 1000 nM,3010 to 10000 nM
CNCCN(C)Cc1c[nH]nc1-c1c(OC)cccc1OC [Compound 56],3010 to 10000 nM,> 10000 nM
CNCCN(C)Cc1c[nH]nc1-c1cccc2ccccc12 [Compound 57],< 100 nM,101 to 1000 nM
CNCCN(C)Cc1c[nH]nc1-c1ccc2ccccc2c1 [Compound 58],< 100 nM,101 to 1000 nM
CNCCN(C)Cc1cn(CCC(O)CO)nc1-c1ccc(F)cc1 (stereo not drawn) [Compound 59],3010 to 10000 nM,3010 to 10000 nM
CCNCCN(C)Cc1c[nH]nc1-c1ccc(F)cc1 [Compound 60],101 to 1000 nM,1010 to 3000 nM
COCCn1cc(CN(C)CCN(C)C)c(-c2ccc(F)cc2)n1 [Compound 61],> 10000 nM,> 10000 nM
CCN(CCN)Cc1c[nH]nc1-c1ccc(F)cc1 [Compound 62],< 100 nM,101 to 1000 nM
CCCN(CCN)Cc1c[nH]nc1-c1ccc(F)cc1 [Compound 63],1010 to 3000 nM,3010 to 10000 nM
COCCn1ncc(CN(C)CCN(C)C)c1-c1ccc(F)cc1 [Compound 64],> 10000 nM,> 10000 nM
CN(CCN)Cc1cnn(CCO)c1-c1ccc(F)cc1 [Compound 65],1010 to 3000 nM,3010 to 10000 nM
CN(CCN)Cc1cn(CCO)nc1-c1ccc(F)cc1 [Compound 66],1010 to 3000 nM,3010 to 10000 nM
CN(CCN)Cc1c[nH]nc1-c1ccc(C#N)cc1 [Compound 68],< 100 nM,101 to 1000 nM
CN(CCN)Cc1n[nH]cc1-c1ccc(F)cc1 [Compound 69],< 100 nM,1010 to 3000 nM
CN(CCN)Cc1c[nH]nc1-c1cccc(C#N)c1 [Compound 70],101 to 1000 nM,1010 to 3000 nM
CN(CCN)Cc1c[nH]nc1-c1cccc(F)c1 [Compound 71],< 100 nM,101 to 1000 nM
CN(CCN)Cc1c[nH]nc1-c1ccccc1F [Compound 72],101 to 1000 nM,3010 to 10000 nM
CN(CCN)Cc1c[nH]nc1-c1ccccc1 [Compound 73],101 to 1000 nM,101 to 1000 nM
CN(CCN)Cc1c[nH]nc1-c1ccc(C(C)(C)C)cc1 [Compound 74],< 100 nM,101 to 1000 nM

SMILES,IC50 [1],IC50 (Full-length human PRMT8)
CC(C)N(CCN)Cc1c[nH]nc1-c1ccc(F)cc1 [Compound 75],101 to 1000 nM,1010 to 3000 nM
CN(CCN)Cc1cn(CC(O)CO)nc1-c1ccc(F)cc1 (stereo not drawn) [Compound 76],3010 to 10000 nM,> 10000 nM
CN(CCN)Cc1cn(C2COC2)nc1-c1ccc(F)cc1 [Compound 77],101 to 1000 nM,1010 to 3000 nM
NCCN(Cc1c[nH]nc1-c1ccc(F)cc1)C1CC1 [Compound 78],101 to 1000 nM,1010 to 3000 nM
CN(CCN)Cc1cn(CC2COC2)nc1-c1ccc(F)cc1 [Compound 79],> 10000 nM,> 10000 nM
CN(CCN)Cc1cnn(CC2COC2)c1-c1ccc(F)cc1 [Compound 80],> 10000 nM,> 10000 nM
CN(CCN)Cc1cnn(C2COC2)c1-c1ccc(F)cc1 [Compound 81],101 to 1000 nM,3010 to 10000 nM
CN(CCN)Cc1c[nH]nc1-c1ccc(N2CCNCC2)cc1 [Compound 82],< 100 nM,1010 to 3000 nM
CN(CCN)Cc1nn(C)cc1-c1ccc(C#N)cc1 [Compound 83],< 100 nM,101 to 1000 nM
CN(CCN)Cc1c(-c2ccc(C#N)cc2)cnn1C [Compound 84],> 10000 nM,> 10000 nM
CN(CCN)Cc1c[nH]nc1-c1ccc(C(F)(F)F)cc1C(F)(F)F [Compound 85],101 to 1000 nM,3010 to 10000 nM
CN(CCN)Cc1c[nH]nc1-c1ccc(Cl)cc1Cl [Compound 86],< 100 nM,101 to 1000 nM
COc1ccc(-c2n[nH]cc2CN(C)CCN)c(OC)c1 [Compound 87],101 to 1000 nM,3010 to 10000 nM
Cc1ccc(-c2n[nH]cc2CN(C)CCN)c(C)c1 [Compound 88],101 to 1000 nM,1010 to 3000 nM
CN(CCN)Cc1c[nH]nc1-c1ccc(F)cc1Cl [Compound 89],< 100 nM,1010 to 3000 nM
Cc1ccc(-c2n[nH]cc2CN(C)CCN)c(Cl)c1 [Compound 90],< 100 nM,1010 to 3000 nM
Cc1ccc(Cl)c(-c2n[nH]cc2CN(C)CCN)c1 [Compound 91],101 to 1000 nM,3010 to 10000 nM
CN(CCN)Cc1c[nH]nc1-c1ccc(C(F)(F)F)cc1 [Compound 92],< 100 nM,101 to 1000 nM
CN(CCN)Cc1c[nH]nc1-c1ccc(OC(F)(F)F)cc1 [Compound 93],< 100 nM,< 100 nM
CN(CCN)Cc1c[nH]nc1-c1ccc(OC(F)F)cc1 [Compound 94],< 100 nM,101 to 1000 nM
